Source: US20040077580A1, “Antisense modulation of PI3K P85 Expression” (priority 2000, published 2004)

Tests used:
mouse PI3K p85 = experiment: Inhibition of mouse PI3K p85 mRNA levels by antisense oligonucleotides, real-time quantitative RT-PCR; type: cell-based; set-up: concentration or dose not given beside the values; settings: chimeric phosphorothioate 2′-MOE gapmers, averaged from two experiments
Experimental: Cells were harvested 16 hours after oligonucleotide treatment.
Target sites are indicated by nucleotide numbers, as given in the sequence source reference (Genbank accession no. U50413; SEQ ID NO: 48), to which the oligonucleotide binds.
Cytidine residues are 5-methylcytidines throughout the oligonucleotides.
Data were obtained by real-time quantitative RT-PCR as described in other examples herein and are averaged from two experiments. […] If present, “N.D.” indicates “no data”.

PI3K p85 mRNA = PI3K p85 mRNA expression in liver and fat of treated mice; type: in vivo, mouse
Experimental: Ob/ob mice are used as a model of obesity. The ob/ob phenotype is due to a mutation in the leptin gene on a C57BL/6J-Lep(ob) background.
In accordance with the present invention, the effects of ISIS 131410 (SEQ ID NO: 56) on PI3K p85 mRNA expression was investigated in the ob/ob mouse model of obesity.
Mice were treated at a dose of 25 mg/kg of ISIS 141925 or 25 mg/kg of ISIS 131410.
Treatment was continued for two weeks after which the mice were sacrificed and tissues collected for mRNA analysis. RNA values were normalized and are expressed as a percentage of saline treated control.
Lean littermates (ob/wt) were also examined for mRNA reduction of PI3K p85 in the liver at doses of 25 and 50 mg/kg of ISIS 131410 or saline treatment. In these animals, at both doses, the level of expression was reduced only minimally to 80% of control.

PI3K p85 splice variants = experiment: Expression of PI3K p85 splice variants in liver, immunoprecipitation with p110 and Western blot with p85pan antibody; type: in vivo, mouse; settings: livers of both ob/ob and wild-type mice
Description: ISIS 131410 is one of several antisense oligonucleotides of the present invention that hybridize to the longer p85α splice variant and not to the p55α or the p50α splice variant. Studies were therefore designed to study the effects of this antisense oligonucleotide on expression product of PI3K p85α splice variant.

[1] = Serum insulin levels in ob/ob mice; type: in vivo, mouse; settings: male ob/ob mice; 50 mg/kg intraperitoneal once a week for two weeks
Description: Treatment was continued for two weeks with serum insulin levels being measured on day 14.

[2] = for Blood glucose level at day 14: 25 or 50 mg/kg intraperitoneal once a week
[3] = male ob/ob mice, 25 mg/kg intraperitoneal once a week for two weeks, percentage of saline treated control
[4] = ob/ob mice, starting level 250 mg/dL at day 1

Row | Substance | % Inhib. of mouse PI3K p85 mRNA levels (mouse PI3K p85) | PI3K p85 mRNA level in liver (PI3K p85 mRNA; lean littermates (ob/wt), at both doses, 25 and 50 mg/kg) | PI3K p85 mRNA level in fat (PI3K p85 mRNA; [3]) | PI3K p85 mRNA level in liver (PI3K p85 mRNA; [3]) | Species of PI3K p85 splice variant present in liver (PI3K p85 splice variants) | Serum insulin level at day 14 [1] [ng/mL] | Hypoglycemia as a result of oligonucleotide treatment ([2]; mouse, in vivo) | Blood glucose level at day 14 [2, 4] [mg/dL] | Blood glucose level at day 7 ([2]; ob/ob mice, all doses (25 or 50 mg/kg) intraperitoneal once a week, starting level 250 mg/dL at day 1) [mg/dL] | Blood glucose level, constant throughout the study (average) ([2]; wild-type mice, all treatment groups (25 or 50 mg/kg), two weeks) [mg/dL]
1 | cctggccatcactgaatcca (CCTGGCCATCACTGAATCCA; chemistry not given here) [ISIS 131410] | at least 60% | 80 % of control | 55 % of control | 52 % of control | alters the species of PI3K p85 variant present in favor of the p50α variant | 5 | no hypoglycemia induced | 150 | 180 | 150
2 | GCCACCGCCTATGTCTTCTC (listed as DNA, chemistry not given here) [ISIS 141925, reference compound] | – | – | no reduction | no reduction | – | 28 | – | 240 | – | –
